# Literature values in publication PMC11887077 (BMC Cancer, 2025).
# System: NRP1
# Conditions: in vitro
substance,measurement,value
CLKADK [CK2],affinity with NRP1 compared with CK3,higher affinity
